According to patent publication EP3368527B1, “PALBOCICLIB TOSYLATE” (Egis Gyógyszergyár Zrt., priority 2015, dated 2017):
Like-named read-outs stand apart in the source and are kept apart here.

What was measured:
[1] = for amount of "other unknown contaminants": change after 3 weeks of storage; for Known contaminant 2: RT 1.97 min; for water absorption: under various storage conditions, compared to the isethionate salt
[2] = WO 2005/005426, in words; cited from earlier work
[3] = low relative humidity (10% RH); cited from earlier work
[4] = Dynamic vapour sorption analysis (DVS): water sorption isotherms, hygroscopicity; format: physicochemical; conditions: 25 °C
[5] = RT 1.70 min, 3 weeks, 25 °C 90% RH
[6] = RT 1.70 min, 3 weeks, 40 °C 70% RH
[7] = RT 2.56 min, 3 weeks, 25 °C 90% RH
[8] = RT 2.56 min, 3 weeks, 40 °C 70% RH

CC(=O)c1c(C)c2cnc(Nc3ccc(N4CCNCC4)cn3)nc2n(C2CCCC2)c1=O [palbociclib base Form A, 6-acetyl-8-cyclopentyl-5-methyl-2-{[5-(1-piperazinyl)-2-piridinyl]amino}pyrido[2,3-d]pyrimidin-7(8H)-one]
Known contaminant 1 (RT 1.85 min) ([1]; 3 weeks, 25 °C 90% RH): 0.03%
Known contaminant 2 (RT 1.97 min) ([1]; 3 weeks, 25 °C 90% RH): 0.04%
Total contamination ([1]; 3 weeks, 25 °C 90% RH): 0.23%
Total unknown contaminant ([1]; 3 weeks, 25 °C 90% RH): 0.16%
Unknown contaminant (RT 1.70 min) ([1]; 3 weeks, 25 °C 90% RH): 0.04%
Unknown contaminant (RT 2.56 min) ([1]; 3 weeks, 25 °C 90% RH): 0.07%
Unknown contaminant (RT 3.04 min) ([1]; 3 weeks, 25 °C 90% RH): 0.05%
Water content ([1]; 3 weeks, 25 °C 90% RH): 0.42% m/m%
Known contaminant 2 (RT 1.97 min) ([1]; 3 weeks, 40 °C 70% RH): 0.05%
Total contamination ([1]; 3 weeks, 40 °C 70% RH): 0.17%
Total unknown contaminant ([1]; 3 weeks, 40 °C 70% RH): 0.13%
Unknown contaminant (RT 1.70 min) ([1]; 3 weeks, 40 °C 70% RH): 0.05%
Unknown contaminant (RT 2.56 min) ([1]; 3 weeks, 40 °C 70% RH): 0.04%
Unknown contaminant (RT 3.04 min) ([1]; 3 weeks, 40 °C 70% RH): 0.04%
Water content ([1]; 3 weeks, 40 °C 70% RH): 0.41% m/m%
Known contaminant 1 (RT 1.85 min) ([1]; 3 weeks, 70 °C): 0.03%
Known contaminant 2 (RT 1.97 min) ([1]; 3 weeks, 70 °C): 0.05%
Total contamination ([1]; 3 weeks, 70 °C): 0.23%
Total unknown contaminant ([1]; 3 weeks, 70 °C): 0.15%
Unknown contaminant (RT 1.70 min) ([1]; 3 weeks, 70 °C): 0.04%
Unknown contaminant (RT 2.56 min) ([1]; 3 weeks, 70 °C): 0.06%
Unknown contaminant (RT 3.04 min) ([1]; 3 weeks, 70 °C): 0.05%
Water content ([1]; 3 weeks, 70 °C): 0.39% m/m%
Known contaminant 2 (RT 1.97 min) ([1]; Starting sample): 0.04%
Total contamination ([1]; Starting sample): 0.13%
Total unknown contaminant ([1]; Starting sample): 0.09%
Unknown contaminant (RT 1.70 min) ([1]; Starting sample): 0.04%
Unknown contaminant (RT 2.56 min) ([1]; Starting sample): 0.05%
Water content ([1]; Starting sample): 0.23% m/m%
amount of "other unknown contaminants" ([1]; in words): significantly increases

CC(=O)c1c(C)c2cnc(Nc3ccc(N4CCNCC4)cn3)nc2n(C2CCCC2)c1=O.Cl.Cl [palbociclib di-HCI salt]
water solubility [2]: suitable water solubility
amount of water absorbed [3]: > 2 m/m %

CC(=O)c1c(C)c2cnc(Nc3ccc(N4CCNCC4)cn3)nc2n(C2CCCC2)c1=O.O=S(=O)(O)CCO [palbociclib isethionate Form B]
Known contaminant 2 (RT 1.97 min) ([1]; 3 weeks, 25 °C 90% RH): 0.09%
Total contamination ([1]; 3 weeks, 25 °C 90% RH): 0.28%
Total unknown contaminant ([1]; 3 weeks, 25 °C 90% RH): 0.19%
Unknown contaminant (RT 1.70 min) ([1]; 3 weeks, 25 °C 90% RH): 0.03%
Unknown contaminant (RT 2.56 min) ([1]; 3 weeks, 25 °C 90% RH): 0.16%
Water content ([1]; 3 weeks, 25 °C 90% RH): 0.97% m/m%
Known contaminant 2 (RT 1.97 min) ([1]; 3 weeks, 40 °C 70% RH): 0.10%
Total contamination ([1]; 3 weeks, 40 °C 70% RH): 0.27%
Total unknown contaminant ([1]; 3 weeks, 40 °C 70% RH): 0.17%
Unknown contaminant (RT 1.70 min) ([1]; 3 weeks, 40 °C 70% RH): 0.03%
Unknown contaminant (RT 2.56 min) ([1]; 3 weeks, 40 °C 70% RH): 0.14%
Water content ([1]; 3 weeks, 40 °C 70% RH): 0.76% m/m%
Known contaminant 2 (RT 1.97 min) ([1]; 3 weeks, 70 °C): 0.09%
Total contamination ([1]; 3 weeks, 70 °C): 0.28%
Total unknown contaminant ([1]; 3 weeks, 70 °C): 0.19%
Unknown contaminant (RT 1.70 min) ([1]; 3 weeks, 70 °C): 0.03%
Unknown contaminant (RT 2.56 min) ([1]; 3 weeks, 70 °C): 0.16%
Water content ([1]; 3 weeks, 70 °C): 0.83% m/m%
Known contaminant 2 (RT 1.97 min) ([1]; Starting sample): 0.09%
Total contamination ([1]; Starting sample): 0.29%
Total unknown contaminant ([1]; Starting sample): 0.20%
Unknown contaminant (RT 1.36 min) ([1]; Starting sample): 0.03%
Unknown contaminant (RT 1.70 min) ([1]; Starting sample): 0.03%
Unknown contaminant (RT 2.56 min) ([1]; Starting sample): 0.14%
Water content ([1]; Starting sample): 0.36% m/m%

palbociclib camsylate salt (1:1) [palbociclib camsylate (1:1) salt]
hygroscopicity (water sorption isotherms) [4]: does not exhibit significant hygroscopicity

palbociclib citrate (1:1) monohydrate salt
hygroscopicity (water sorption isotherms) [4]: exhibits significant hygroscopicity

palbociclib hydrogen chloride (1:1) salt Form E
hygroscopicity (water sorption isotherms) [4]: does not exhibit significant hygroscopicity
stability ([1]; 3 weeks of storage under various forced conditions, compared to palbociclib base Form A and isethionate salt Form B, in words): more stable than the Form A base
Total contamination ([1]; 3 weeks, 25 °C 90% RH): 0.22%
Total unknown contaminant ([1]; 3 weeks, 25 °C 90% RH): 0.16%
Water content ([1]; 3 weeks, 25 °C 90% RH): 0.45% m/m%
Total contamination ([1]; 3 weeks, 40 °C 70% RH): 0.19%
Total unknown contaminant ([1]; 3 weeks, 40 °C 70% RH): 0.13%
Water content ([1]; 3 weeks, 40 °C 70% RH): 0.41% m/m%
Total contamination ([1]; 3 weeks, 70 °C): 0.23%
Total unknown contaminant ([1]; 3 weeks, 70 °C): 0.17%
Water content ([1]; 3 weeks, 70 °C): 0.42% m/m%
Unknown contaminant [1, 5]: 0.06%
Unknown contaminant [1, 6]: 0.06%
Unknown contaminant ([1]; RT 1.70 min, 3 weeks, 70 °C): 0.06%
Unknown contaminant ([1]; RT 1.70 min, Starting sample): 0.05%
Known contaminant 2 ([1]; 3 weeks, 25 °C 90% RH): 0.06%
Known contaminant 2 ([1]; 3 weeks, 40 °C 70% RH): 0.06%
Known contaminant 2 ([1]; 3 weeks, 70 °C): 0.06%
Known contaminant 2 ([1]; Starting sample): 0.05%
Unknown contaminant [1, 7]: 0.10%
Unknown contaminant [1, 8]: 0.07%
Unknown contaminant ([1]; RT 2.56 min, 3 weeks, 70 °C): 0.11%
Unknown contaminant ([1]; RT 2.56 min, Starting sample): 0.10%
Total contamination ([1]; Starting sample): 0.20%
Total unknown contaminant ([1]; Starting sample): 0.15%
Water content ([1]; Starting sample): 0.21% m/m%
amount of "other unknown contaminants" ([1]; in words): remains unchanged
water absorption ([1]; in words): significantly less water absorption

palbociclib maleate (Form I) (1:1) salt
hygroscopicity (water sorption isotherms) [4]: does not exhibit significant hygroscopicity

palbociclib maleate (Form II) (1:1) salt
hygroscopicity (water sorption isotherms) [4]: does not exhibit significant hygroscopicity

palbociclib napsylate (1:1) salt
hygroscopicity (water sorption isotherms) [4]: does not exhibit significant hygroscopicity

palbociclib napsylate (1:2) dihydrate salt
hygroscopicity (water sorption isotherms) [4]: exhibits significant hygroscopicity

palbociclib oxalate (1:1) salt
hygroscopicity (water sorption isotherms) [4]: does not exhibit significant hygroscopicity

palbociclib sulphate (C24H29N7O2 . ½ H2SO4 . 2 H2O) dihydrate salt
hygroscopicity (water sorption isotherms) [4]: exhibits significant hygroscopicity

palbociclib tosylate (1:1) salt
hygroscopicity (water sorption isotherms) ([4]; listed as palbociclib 4-toluenesulfonic acid (1:1) salt): does not exhibit significant hygroscopicity
hygroscopicity (water sorption isotherms) ([4]; listed as palbociclib tosylate salt form): surprisingly low hygroscopicity
Total contamination ([1]; 3 weeks, 25 °C 90% RH): 0.09%
Total unknown contaminant ([1]; 3 weeks, 25 °C 90% RH): 0.09%
Water content ([1]; 3 weeks, 25 °C 90% RH): 0.51% m/m%
Total contamination ([1]; 3 weeks, 40 °C 70% RH): 0.09%
Total unknown contaminant ([1]; 3 weeks, 40 °C 70% RH): 0.09%
Water content ([1]; 3 weeks, 40 °C 70% RH): 0.49% m/m%
Total contamination ([1]; 3 weeks, 70 °C): 0.10%
Total unknown contaminant ([1]; 3 weeks, 70 °C): 0.10%
Water content ([1]; 3 weeks, 70 °C): 0.49% m/m%
Unknown contaminant [1, 5]: 0.04%
Unknown contaminant [1, 6]: 0.05%
Unknown contaminant ([1]; RT 1.70 min, 3 weeks, 70 °C): 0.05%
Unknown contaminant ([1]; RT 1.70 min, Starting sample): 0.04%
Unknown contaminant [1, 7]: 0.05%
Unknown contaminant [1, 8]: 0.04%
Unknown contaminant ([1]; RT 2.56 min, 3 weeks, 70 °C): 0.05%
Unknown contaminant ([1]; RT 2.56 min, Starting sample): 0.04%
Total contamination ([1]; Starting sample): 0.08%
Total unknown contaminant ([1]; Starting sample): 0.08%
Water content ([1]; Starting sample): 0.34% m/m%
amount of "other unknown contaminants" ([1]; in words): remains unchanged
water absorption ([1]; in words): significantly less water absorption
solubility (0.1 M HCl (pH=1), 37 °C, 1440 min): 20.0 mg/mL
solubility (pH 4.5 (slightly acidic), 37 °C, compared to reference palbociclib base Form A, in words): significantly better
solubility (pH 4.5 (slightly acidic), 37 °C, compared to reference palbociclib base Form A, in words, listed as palbociclib tosylate salt form): significantly better solubility
solubility (pH=1, 37 °C, compared to reference palbociclib base Form A, in words): comparable
solubility (pH=4.5 phosphate buffer, 37 °C, 1440 min): 0.2 mg/mL
solubility (pH=6.8 phosphate buffer, 37 °C, 1440 min): <0.03 mg/mL
